Data on 1 molecule can be found in patent US20220265646A1, “PIEZO AGONISTS FOR PREVENTING OR REVERTING ABNORMAL AMYLOID DEPOSITION” (ITÄ-SUOMEN YLIOPISTO, priority 2019, published 2022).

The target of one assay is T1, Piezo1Rs (Homo sapiens, UniProt Q92508).
T1 construct: SV-40 immortalized human microglia cell line which endogenously express Piezo-1 and Piezo2Rs was used; endogenous in cells; host or cells: SV-40 immortalized human microglia cell line
The experiment in a line: Calcium imaging of Yoda1-evoked Ca2+ transients in SV-40 immortalized human microglia cell line. The format is cell-based. The settings on record: SV-40 cells, n=13, p=0.00009. How it is done:
To study the calcium influx evoked by native Piezo1 Rs expressed in microglia cells the present inventors used short Yoda1 applications (2 s, 50 μM if not otherwise specified). For this purpose, human IPSO derived microglia cells and SV-40 (immortalized human microglia) cells were seeded on 7 mm cover slips 1 day prior to the imaging experiment. Cells were loaded with the calcium-sensitive fluorescent dye Fluo-4AM (5 μM) for 30 min at 37° C. Followed by wash-incubation for 15 min in Ab 20 μM, 50 μM GdCI and basic solution (BS) as a control at 37° C. The basic solution containing the following (BS, in mM): 2.5 KCl, 152 NaCl, 10 glucose, 2 CaCl2, and 10 HEPES at pH 7.4. Fluorescence was visualized using monochromatic light source (TILL Photonics GmbH) using Ex/Im 494/[…] and a CCD camera (SensiCam). […] To quantify the difference in the amplitude of calcium transients, the ratio values were normalized by subtracting a baseline and further divided by the amplitude of the calcium transient to the 2 sec application of the ionomycin. Data were pre-analyzed offline using the FEI offline analysis (TILL Photonics), and further analysis was automatized using MatLab. Quantitative data were expressed as means±SEM unless otherwise stated. […] Significance assessed with the ANOVA test or Mann-Whitney t test for non-parametric data. […]

A further assay has as its target T2, native Piezo1Rs (Homo sapiens, UniProt Q92508).
T2 construct: endogenous in cells; host or cells: human iPSC-derived microglia
The experiment in a line: Calcium imaging of Yoda1-evoked Ca2+ influx in hiPSC-derived microglia. The settings on record: 50 μM GdCI in BS pre-incubation. In kind it is cell-based. How it is done: To study the calcium influx evoked by native Piezo1 Rs expressed in microglia cells the present inventors used short Yoda1 applications (2 s, 50 μM if not otherwise specified). For this purpose, human IPSO derived microglia cells and SV-40 (immortalized human microglia) cells were seeded on 7 mm cover slips 1 day prior to the imaging experiment. Cells were loaded with the calcium-sensitive fluorescent dye Fluo-4AM (5 μM) for 30 min at 37° C. Followed by wash-incubation for 15 min in Ab 20 μM, 50 μM GdCI and basic solution (BS) as a control at 37° C. The basic solution containing the following (BS, in mM): 2.5 KCl, 152 NaCl, 10 glucose, 2 CaCl2, and 10 HEPES at pH 7.4. Fluorescence was visualized using monochromatic light source (TILL Photonics GmbH) using Ex/Im 494/[…] and a CCD camera (SensiCam). Chemicals were applied using a fast perfusion system (RSC-200, BioLogic Science). To quantify the difference in the amplitude of calcium transients, the ratio values were normalized by subtracting a baseline and further divided by the amplitude of the calcium transient to the 2 sec application of the ionomycin. Data were pre-analyzed offline using the FEI offline analysis (TILL Photonics), and further analysis was automatized using MatLab. Quantitative data were expressed as means±SEM unless otherwise stated. Number of experiments is indicated by n. Significance assessed with the ANOVA test or Mann-Whitney t test for non-parametric data. Statistically significant differences were set at*p<0.05 and **p<0.01.
Differentiation of microglia. Differentiation of microglia was carried out as previously described with minor modifications (Abud et al., 2017). Shortly, on DO, iPSCs were dissociated to single cells with 0.5 mM EDTA or Accutase and were replated at a density of 6-,000-16,000 cells/cm2 on Matrigel in E8, 0.5% penicillin/streptomycin (P/S, 50 IU/50 […]), 5 ng/ml BMP4, 25 ng/ml activin a (both from Peprotech or Miltenyi Biotec), 1 μM CHIR 99021 (Axon or Stem Cell Technologies) and 10 μM Y-27632 to induce mesodermal differentiation. […]

T2 sequence (Q92508 whole entry): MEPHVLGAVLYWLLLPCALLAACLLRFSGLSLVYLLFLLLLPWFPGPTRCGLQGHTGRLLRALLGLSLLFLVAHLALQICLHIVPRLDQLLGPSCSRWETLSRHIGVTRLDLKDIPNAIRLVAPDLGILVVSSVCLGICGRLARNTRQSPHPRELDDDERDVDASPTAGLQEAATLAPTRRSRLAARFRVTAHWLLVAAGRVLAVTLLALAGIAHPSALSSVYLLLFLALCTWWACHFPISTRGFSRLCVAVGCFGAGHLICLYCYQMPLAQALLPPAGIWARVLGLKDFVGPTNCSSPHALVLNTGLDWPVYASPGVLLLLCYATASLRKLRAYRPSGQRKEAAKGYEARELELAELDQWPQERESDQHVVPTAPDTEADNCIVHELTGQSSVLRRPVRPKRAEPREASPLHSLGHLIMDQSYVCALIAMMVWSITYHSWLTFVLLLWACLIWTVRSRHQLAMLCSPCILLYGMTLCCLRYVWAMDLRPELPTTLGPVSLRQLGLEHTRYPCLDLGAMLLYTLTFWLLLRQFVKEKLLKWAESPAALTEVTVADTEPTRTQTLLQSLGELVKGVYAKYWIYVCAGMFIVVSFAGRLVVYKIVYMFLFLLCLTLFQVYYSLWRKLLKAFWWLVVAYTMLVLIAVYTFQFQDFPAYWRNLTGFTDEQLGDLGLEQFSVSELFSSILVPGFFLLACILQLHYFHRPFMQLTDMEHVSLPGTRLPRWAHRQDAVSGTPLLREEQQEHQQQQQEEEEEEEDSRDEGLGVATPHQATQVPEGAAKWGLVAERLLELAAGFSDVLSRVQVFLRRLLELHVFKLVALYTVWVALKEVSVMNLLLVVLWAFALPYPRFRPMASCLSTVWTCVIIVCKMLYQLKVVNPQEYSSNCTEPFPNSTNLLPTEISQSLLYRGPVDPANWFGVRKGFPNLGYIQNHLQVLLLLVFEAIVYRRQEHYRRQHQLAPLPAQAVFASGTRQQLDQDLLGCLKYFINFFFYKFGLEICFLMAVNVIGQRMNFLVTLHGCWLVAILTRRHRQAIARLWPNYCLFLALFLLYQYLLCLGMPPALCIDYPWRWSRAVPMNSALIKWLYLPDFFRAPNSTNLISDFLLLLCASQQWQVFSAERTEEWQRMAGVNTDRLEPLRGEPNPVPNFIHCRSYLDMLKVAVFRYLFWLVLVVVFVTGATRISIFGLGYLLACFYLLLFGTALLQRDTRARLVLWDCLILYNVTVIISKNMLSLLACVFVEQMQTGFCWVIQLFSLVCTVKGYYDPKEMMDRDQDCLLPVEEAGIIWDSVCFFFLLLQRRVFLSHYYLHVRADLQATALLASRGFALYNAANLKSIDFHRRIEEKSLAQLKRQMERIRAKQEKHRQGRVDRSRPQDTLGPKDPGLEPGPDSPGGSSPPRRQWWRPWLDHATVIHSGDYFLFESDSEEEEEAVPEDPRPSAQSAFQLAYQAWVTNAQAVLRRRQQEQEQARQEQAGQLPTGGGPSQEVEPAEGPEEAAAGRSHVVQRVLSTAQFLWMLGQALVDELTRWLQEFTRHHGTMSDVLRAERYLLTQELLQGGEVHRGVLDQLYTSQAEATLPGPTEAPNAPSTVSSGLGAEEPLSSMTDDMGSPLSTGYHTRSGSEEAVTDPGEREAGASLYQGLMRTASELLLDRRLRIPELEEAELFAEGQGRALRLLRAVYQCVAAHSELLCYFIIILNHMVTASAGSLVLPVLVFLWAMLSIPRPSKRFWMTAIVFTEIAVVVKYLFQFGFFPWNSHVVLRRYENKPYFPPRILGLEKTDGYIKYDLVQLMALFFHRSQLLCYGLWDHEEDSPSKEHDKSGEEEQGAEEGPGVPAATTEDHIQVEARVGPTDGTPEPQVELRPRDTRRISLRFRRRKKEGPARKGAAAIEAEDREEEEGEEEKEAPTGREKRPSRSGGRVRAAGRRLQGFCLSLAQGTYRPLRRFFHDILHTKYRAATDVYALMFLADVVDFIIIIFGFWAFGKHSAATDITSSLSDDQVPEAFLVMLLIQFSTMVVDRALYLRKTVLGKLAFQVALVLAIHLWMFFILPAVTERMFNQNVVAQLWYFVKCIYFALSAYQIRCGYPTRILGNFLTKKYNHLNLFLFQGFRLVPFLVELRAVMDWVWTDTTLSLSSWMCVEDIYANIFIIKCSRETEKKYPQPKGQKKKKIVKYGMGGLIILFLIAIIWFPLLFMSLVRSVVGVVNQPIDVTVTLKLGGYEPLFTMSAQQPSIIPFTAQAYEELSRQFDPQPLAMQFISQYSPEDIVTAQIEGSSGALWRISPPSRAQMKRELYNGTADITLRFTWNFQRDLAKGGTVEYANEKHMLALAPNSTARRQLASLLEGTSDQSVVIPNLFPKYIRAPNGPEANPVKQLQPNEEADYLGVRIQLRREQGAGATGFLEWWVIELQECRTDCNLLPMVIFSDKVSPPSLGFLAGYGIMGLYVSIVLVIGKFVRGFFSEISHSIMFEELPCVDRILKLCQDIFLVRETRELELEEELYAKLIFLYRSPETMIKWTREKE
T1 sequence (Q92508 whole entry): as above

`[Cl][Gd]([Cl])[Cl]` [GdCI, Gadolinium chloride]: the “Yoda1 activated Ca2+ transients after pre-incubation of GdCI” value on Piezo1Rs turned out to be 0.17±0.04. Besides, the “Yoda1-activated Ca2+ transients after pre-incubation with GdCI” value on native Piezo1Rs (50 μM Yoda1 2 s, n=5, p=0.0073) is 0.10±0.1. For the same molecule, the “inhibition of Yoda1-activated Ca2+ transients” value on native Piezo1Rs (hiPSC microglia) was 90%.
